Laboratory results from patent publication US5658913A, “Chemopreventive compounds and a preparation method and use thereof” (Kim; Nak Doo, priority 1993, dated 1997).

Key:
Assay type in all cases: in vivo, Sprague-Dawley rat
[1] = tested on: microsomal epoxide hydrolase (mEH); experiment: Western blot analysis for microsomal epoxide hydrolase (Experimental Example 3(1)); settings: 200 mg/kg i.p. for 1, 2 or 3 days; FIG. 6
Description: The hepatic microsomes were separated and subjected to SDS-polyacrylamide gel electrophoresis by following the same procedure as in the above Experimental Example 1(1). Thereafter, western blot analysis for microsomal epoxide hydrolase(mEH) was carried out as follows:
Streptavidine-horseradish peroxidase and 4-chloro-1-naphtol were added to the reaction mixture to develop a color.

[2] = tested on: p-nitrophenol hydroxylase; experiment: p-Nitrophenol hydroxylase activity of hepatic microsomes (Experimental Example 1(2-1)); settings: 200 mg/kg
Description: In order to examine the effect of the compound of the present invention on the activity of the enzymes involved in phase I reaction, the experiments were carried out as follows:
(§1) Six groups of Sprague-Dawley rat weighing 190±30 g were administered with pyrazine(Groups 1 to 3) or the compound prepared in Example 1-1(Groups 4 to 6) in a dose of 200 mg/kg for 1, 2 or 3 days. After the hepatic microsomes were separated by following the same procedure as in the above (1), activity of p-nitrophenol hydrolase was measured according to the method of Koop(Dennis R. Koop, Hydroxylation p-nitrophenol by rabbit ethanol inducible cytochrome P-450 isozyme 3a, Molecular Pharmacol. 29, 399-404(1986)).
Thus, 1 mg of microsomes and 1mM p-nitrophenol were added to 0.6 ml of 0.1M potassium phosphate buffer(pH 6.8) to make the total volume of 0.9 ml. The resulting mixture was preliminarily reacted in a 37° C. incubator for 2 minutes and started to react while adding 1 mM NADPH(0.1 ml). After 3 minutes, 0.5 ml of 0.6N perchloric acid was added to develop a color and the absorbance at 546 nm was measured at once. The enzyme activity was expressed in terms of mole concentration of 4-nitrocatechol, the product of reaction for 1 minute.

aniline hydroxylase = experiment: Aniline hydroxylase activity of hepatic microsomes (Experimental Example 1(2-2)); settings: 200 mg/kg
Description: as §1
The same procedure as in the above (2-1) was carried out to measure the activity of aniline hydroxylase. The activity of aniline hydroxylase was measured according to the method of Mieyal(John J. Mieyal, Acceleration of the autooxidation of human oxyhemoglobin by aniline and its relation to hemoglobin-catalyzed aniline hydroxylation, J. Biol. Chem. 251, 3442-3446(1976)).
Thus, 1 mg of microsomes and 5 mM aniline were added to 0.6 ml of 0.1M potassium phosphate buffer(pH 6.8) to make the total volume of 0.9 ml. 1 mM NADPH was added to make the total volume of 1.0 ml and the resulting mixture was reacted at 37° C. After 10 minutes, 20% trichloroacetic acid was added to stop the reaction and the reaction mixture was centrifuged. To 1 ml of supernatant were added 0.1 ml of 5% phenol and 0.1 ml of 2.5N sodium carbonate, dissolved in 0.1N NaOH. The mixture was allowed to stand for 30 minutes to develop a color and the absorbance at 630 nm was measured at once. The enzyme activity was expressed in terms of mole concentration of 4-aminophenol, the product of reaction for 1 minute.

[3] = tested on: N-nitrosodimethylamine demethylase; experiment: N-Nitrosodimethylamine demethylase activity of hepatic microsomes (Experimental Example 1(2-3)); settings: 200 mg/kg, 1 to 3 days, time-dependent
Description: as §1
The same procedure as in the above (2-1) was carried out to measure the activity of N-nitrosodimethyl demethylase. The activity of N-nitrosodimethyl demethylase was measured according to the method of Kaul and Novak(Kaul, L. L. and Novak, R. F., Induction of rabbit hepatic microsomal cytochrome P-450 by imidazole; enhanced metabolic activity and altered substrate specificity, Arch. Biochem. Biophys., 235, 470-481(1984)).
Thus, 10 mM N-Nitrosodimethylamine and 0.6 ml of 0.1M potassium phosphate buffer(pH 7.4) were added to 1 mg of microsomes, and 1 mM NADPH was added to make the total volume of 1 ml. After the mixture was reacted at 37° C. for 30 minutes, 20% trichloroacetic acid was added to stop the reaction and the reaction mixture was centrifuged. […] The mixture was allowed to stand at 37° C. for 45 minutes to develop a color and the absorbance at 412 nm was measured. […]

C=CCSc1cnccn1 [Example 1-1, 2-(2-propenylthio)pyrazine]
expression of mEH compared to control or pyrazine groups [1]: significant increase in the expression of mEH
decrease in activity of p-nitrophenol hydrolase compared to pyrazine groups ([2]; 1 day): 64%
decrease in activity of p-nitrophenol hydrolase compared to pyrazine groups ([2]; 2 days): 73%
decrease in activity of p-nitrophenol hydrolase compared to pyrazine groups ([2]; 3 days): 82%
decrease in activity of aniline hydroxylase compared to pyrazine groups (aniline hydroxylase; 1 day): 57%
decrease in activity of aniline hydroxylase compared to pyrazine groups (aniline hydroxylase; 2 days): 80%
decrease in activity of aniline hydroxylase compared to pyrazine groups (aniline hydroxylase; 3 days): 88%
decrease in activity of N-nitrosodimethylamine demethylase compared to pyrazine groups [3]: 49-73%
